Experimental data from US20120136033A1, “Small Molecule Antagonists of Phosphatidylinositol-3,4,5-Triphosphate (PIP3) and Uses Thereof” (President and Fellows of Harvard College, priority 2009, published 2012).

Key:
[1] = molecular target: T1, Akt PH domain (PH123, 1-123 a.a. N-terminal fragment of human Akt1) (Homo sapiens, UniProt P31749); experiment: fluorescence polarization (FP) PIP3/Akt PH domain binding assay; conditions: 15 nM TMR-PIP3, 5 μM GST-PH domain of Akt, 30 min, read-out: IC50, disruption of PIP3/Akt PH domain binding
T1 construct: recombinant GST fusion proteins containing 1-123 a.a; N-terminal fragment of human Akt1 (PH 123); made in house; host or cells: E. coli BL21(DE3)
T1 sequence (P31749 1-123): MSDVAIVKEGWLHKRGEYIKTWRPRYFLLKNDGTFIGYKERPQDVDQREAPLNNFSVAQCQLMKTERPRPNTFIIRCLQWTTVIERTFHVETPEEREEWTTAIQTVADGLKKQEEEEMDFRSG
Experimental: 15 nM TMR-conjugated PIP3 were incubated with 5 μM GST-PH domain of Akt in the presence or absence of the indicated concentrations of PITs (0-200 μM) for 30 min, followed by FP measurement.
In order to identify compounds that disrupt the interaction between PIP3 and PH domains, a high-throughput fluorescence polarization (FP)-binding assay was developed using recombinant 1-123 amino acid N-terminal fragment of human Akt1 (also referred to herein simply as Akt), encompassing the PH domain (PH123 protein), and fluorescent NBD-labeled PIP3 molecule. […] Briefly, 5 μM recombinant GST fusion proteins containing 1-123 a.a. N-terminal fragment of human Akt1 (PH 123) or 100 nM 441-551 a.a. region of human PDK1 were incubated with 15 nM TMR-labeled PIP3, PIP2, or PIP5 in buffer containing 50 mM Tris-HCl (pH 7.5), 150 mM NaCl, and 5 mM b-ME for 15 min at room temperature in the dark. FP values were determined using Wallac Victor 3 plate reader. […] Incubations were carried out for 1 hr. For secondary assays, PIT compounds were added at various concentrations (6.25, 12.5, 25, 50, 100, 150 and 200 μM), followed by a 30 min incubation. The inhibition rates were calculated as: inhibition rate=[1−(compound-treated group/control group)]×100%, and IC50 value was determined using Origin6 software (MicroCal, LLC, Northampton, Mass.).

Btk PH domain = molecular target: T2, Btk PH domain (Homo sapiens, UniProt Q06187); experiment: PH domain translocation assay, GFP-fused Btk PH domain; format: cell-based; conditions: 100 μM, 2 hr, PDGF stimulation
T2 construct: Btk PH domain-GFP vector was purchased from Signagen Laboratories
T2 sequence (Q06187 3-133 limits assumed): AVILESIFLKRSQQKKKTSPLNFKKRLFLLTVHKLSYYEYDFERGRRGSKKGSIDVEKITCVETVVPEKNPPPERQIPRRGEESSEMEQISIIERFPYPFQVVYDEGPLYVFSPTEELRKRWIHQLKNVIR
Experimental: Cells were transfected with the corresponding GFP-fusion vectors, serum starved overnight, and incubated with 100 μM PITs or PIT-1is for 2 hr, followed by stimulation with 100 ng/ml PDGF or 250 ng/ml PMA for 5 min. The translocation was analyzed using fluorescent microscope and was quantitated by counting the number of cells with translocated PH domains in five random fields.
(§1) To begin characterizing cellular activity of PITs, a PH domain translocation assay was performed, measuring PIP3-induced association of GFP-fused PH domains with the plasma membrane. This method provides useful means for monitoring status of the PH domain/PIP3 binding in the intact cells. Varnai P et al. (1999) J Biol Chem 274:10983-9. Several PH-domain-containing proteins, which are known to bind PIP3 specifically and efficiently, were examined. […] Oikawa T et al. (2004) Nat Cell Biol 6:420-6.

VAV2 = molecular target: T3, VAV2 (Homo sapiens, UniProt P52735); experiment: plasma membrane translocation assay, VAV2-GFP; format: cell-based; conditions: PDGF stimulation
T3 construct: expressed in transfected cells; host or cells: SUM159
T3 sequence (P52735 whole entry, species assumed): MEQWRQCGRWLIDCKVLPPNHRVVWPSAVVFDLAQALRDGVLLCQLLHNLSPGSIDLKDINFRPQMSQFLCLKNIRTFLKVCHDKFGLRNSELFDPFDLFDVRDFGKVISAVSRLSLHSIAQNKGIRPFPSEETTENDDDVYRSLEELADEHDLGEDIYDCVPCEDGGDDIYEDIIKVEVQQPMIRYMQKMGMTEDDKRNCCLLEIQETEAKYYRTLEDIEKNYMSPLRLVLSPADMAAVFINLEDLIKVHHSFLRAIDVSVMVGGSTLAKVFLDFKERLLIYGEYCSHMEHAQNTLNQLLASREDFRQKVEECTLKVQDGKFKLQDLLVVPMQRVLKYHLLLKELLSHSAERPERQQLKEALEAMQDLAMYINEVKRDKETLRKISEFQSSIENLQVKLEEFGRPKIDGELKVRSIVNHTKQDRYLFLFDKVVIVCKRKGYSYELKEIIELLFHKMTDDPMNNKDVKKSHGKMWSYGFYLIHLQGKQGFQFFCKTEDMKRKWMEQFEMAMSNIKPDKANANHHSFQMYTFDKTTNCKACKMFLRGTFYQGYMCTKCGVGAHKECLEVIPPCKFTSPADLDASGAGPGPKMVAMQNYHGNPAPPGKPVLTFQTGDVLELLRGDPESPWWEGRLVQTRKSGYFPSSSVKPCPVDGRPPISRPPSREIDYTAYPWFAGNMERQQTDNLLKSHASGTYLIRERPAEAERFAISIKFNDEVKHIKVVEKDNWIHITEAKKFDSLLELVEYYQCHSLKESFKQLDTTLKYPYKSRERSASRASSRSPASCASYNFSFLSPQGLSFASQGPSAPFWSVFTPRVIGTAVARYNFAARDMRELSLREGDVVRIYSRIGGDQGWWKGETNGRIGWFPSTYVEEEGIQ
Experimental: as §1

WAVE2 = molecular target: T4, WAVE2 (Homo sapiens, UniProt Q9Y6W5); experiment: plasma membrane translocation assay, WAVE2-GFP; format: cell-based
T4 construct: expressed in transfected cells; host or cells: SUM159
T4 sequence (Q9Y6W5 whole entry, species assumed): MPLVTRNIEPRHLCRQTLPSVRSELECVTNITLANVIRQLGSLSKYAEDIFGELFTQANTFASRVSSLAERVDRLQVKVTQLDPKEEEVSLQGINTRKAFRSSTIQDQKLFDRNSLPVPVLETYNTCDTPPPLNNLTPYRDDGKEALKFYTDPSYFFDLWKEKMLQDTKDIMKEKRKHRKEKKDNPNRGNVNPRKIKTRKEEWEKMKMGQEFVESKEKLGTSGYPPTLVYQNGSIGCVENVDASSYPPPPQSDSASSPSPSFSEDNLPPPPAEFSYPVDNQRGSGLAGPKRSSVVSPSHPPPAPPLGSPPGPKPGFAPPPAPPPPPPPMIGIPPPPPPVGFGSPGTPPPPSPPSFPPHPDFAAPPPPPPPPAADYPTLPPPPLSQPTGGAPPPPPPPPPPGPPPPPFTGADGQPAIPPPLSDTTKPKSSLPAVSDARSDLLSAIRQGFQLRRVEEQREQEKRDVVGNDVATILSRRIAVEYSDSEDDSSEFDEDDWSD
Experimental: as §1

PI3K-PDK1-Akt pathway = PI3K-PDK1-Akt pathway phosphorylation events in U87MG cells; format: cell-based, human
Experimental: The effect of PIT-1 on PIP3-mediated signaling was examined in U87MG glioblastoma cells, which show elevated basal levels of PIP3 due to the loss of PTEN. Pore N et al. (2003) Cancer Res 63:236-41.

[2] = system: multiple cancer cell lines; experiment: cancer cell viability (MTS or ATP assay), multiple cancer cell lines; format: cell-based; conditions: for viability of multiple cancer cell lines: B16, Jurkat, Lewis lung carcinoma, A549, 4T1, SUM-159, MDA-MB-231, MTS or ATP assay
Experimental: Different cancer cell lines U87MG, SUM 159, A549, and MDA-MB-231 were incubated with the indicated concentrations of PIT-1 (12.5-100 μM) for 48 hr. Cell viability was determined using ATP assay.
(§2) Based on the critical role of PIP3-dependent Akt signaling in the regulation of cell survival, the effect of PIT-1 on the cancer cell viability was tested. Cancer cells were seeded into 96-well plates (white plates for ATP assay; black plates for fluorescent assay; clear plates for MTS assay) at the density of 5-10×10^3 cells per well in 100 μl of the appropriate media. Compounds were added at a series of concentrations and incubated for different times. For the ATP assay, a luminescence-based commercial kit (CellTiter-Glo, Promega, Madison, Wis.) was used. Thirty microliters of cell lysis/ATP detection reagent was added to each well, mixed for 10 min at room temperature, and the luminescence was measured using a Wallac Victor 3 plate reader (Perkin-Elmer, Wellesley, Mass.). For the MTS assay, a CellTiter 96 AQueous Non-Radioactive Cell Proliferation Assay Kit (Promega, Madison, Wis., USA) was used. Twenty microliters of the combined MTS/PMS solution was added into each well, incubated for 4 hr at 37° C., and the absorbance at 490 nm was measured using a Wallac Victor 3 plate reader. For the Sytox cell death assay, measuring loss of plasma membrane integrity, cells were incubated with 1 μM Sytox Green reagent (Molecular Probes, Eugene, Oreg.) for 30 min at 37° C. and the fluorescence intensity was measured using Wallac Victor 3 plate reader with excitation at 485 nm and emission at 545 nm. Next, 5 μl of 20% (v/v) Triton X-100 solution was added to each well and incubated for 1 hr at 37° C., and the signal was measured again. The ratio of values (percentage of dead cells in each well) before and after Triton X-100 treatment was calculated and normalized to the relevant controls not subjected to the cytotoxic stimuli. IC50 values were determined using Origin6 software (MicroCal, LLC, Northampton, Mass.).

U87MG cells = experiment: U87MG cell viability, ATP assay; format: cell-based, human; conditions: for viability of U87MG cells: 12.5-100 μM, 48 hr, ATP assay
Experimental: U87MG cells were incubated with PITs (12.5-100 μM) for 48 hr. Cell viability was determined using ATP assay.
as §2

[3] = system: Bax/Bak double knockout mouse embryonic fibroblasts; experiment: cell killing in Bax/Bak double knockout vs wild-type cells; format: cell-based
Experimental: Bax/Bak double knockout mouse embryonic fibroblasts (Wei M C et al. (2001) Science 292:727-30) and matched wild-type cells were a generous gift of Dr. Stanley Korsmeyer (Dana-Farber Cancer Center). B16-F10, U87MG, 4T1, A549, MDA-MB-231 and fibroblast cells were cultured in DMEM medium with 10% fetal bovine serum (FBS). SUM159 was maintained in Ham's F-12 medium with 5% FBS, 5 μg/ml insulin, and 1 μg/ml hydrocortisone. HUVEC cells were cultured in M199 medium with 20% FBS, 20 μg/ml ECGS, and 50 μg/ml heparin. All media were supplemented with 100 units/ml penicillin, 100 μg/ml streptomycin, and 2 mM glutamine. All cells were cultured in a humidified atmosphere of 95% air and 5% CO2 at 37° C.

cells = experiment: cell death under glucose/glutamine deprivation; format: cell-based
Source text: Elstrom R L et al. (2004) Cancer Res 64:3892-9.

HUVEC = experiment: endothelial tube formation assay on Matrigel; format: cell-based, human
Experimental: The tube formation assay was performed in 96-well plates. Wells were pre-coated with 70 μl of the Matrigel basement membrane matrix (BD Biosciences) per well for 1 hr at 37° C. HUVEC were suspended in serum-free M199 medium and plated on Matrigel at a density of 2×10^4 cells per well. PIT-1 was added at indicated concentrations (3.125-100 μM). After an 8 hr incubation at 37° C., phase-contrast images of the endothelial tubes were obtained using a Nikon TE2000 microscope, and tube formation was assessed by counting the number of closed tubes in five random fields from each well.

[4] = solubility / precipitation; format: physicochemical
Source text: This method has been reported to be efficient for in vivo targeting of cancer cells by other poorly soluble anti-cancer drugs, such as m-porphyrin, tamoxifen, and taxol. Gao Z et al. (2003) J Drug Target 11:87-92; Torchilin V P et al. (2003) Proc Natl Acad Sci USA 100:6039-44.
The size of the DM-PIT-1-loaded micelles was about 15 nm with a narrow size distribution.

Structure (SMILES)	IC50 [1]	inhibition of translocation of Btk PH domain to the plasma membrane (Btk PH domain)	inhibition of translocation of VAV2 to the plasma membrane (VAV2)	plasma membrane translocation of WAVE2 (WAVE2)	activity of the PI3K-PDK1-Akt pathway in U87MG cells (PI3K-PDK1-Akt pathway)	viability of U87MG, SUM 159, A549 and MDA-MB-231 cells ([2]; 12.5-100 μM, 48 hr, ATP assay)	viability of multiple cancer cell lines [2]	killing of U87MG cells compared with LY294002 (U87MG cells)	viability of U87MG cells (U87MG cells)	killing of Bax/Bak double knockout cells compared with wild-type cells [3]	cell death in combination with glucose/glutamine deprivation (cells)	IC50 (HUVEC; Homo sapiens, HUVEC on Matrigel, 8 hr, 3.125-100 μM, read-out: IC50, inhibition of tube formation)	aqueous solubility [4]	inhibition of tube formation (HUVEC)
O=C(NC(=S)Nc1cc([N+](=O)[O-])cc(Cl)c1O)c1ccccc1 [PIT-1]	28.1 µM	significantly inhibited	significantly inhibited	suppressed the plasma membrane translocation	suppressed activity	reduces viability	reduced viability	more pronounced than that by the PI3K inhibitor LY294002	reduce viability	reduced in Bax/Bak double knockout cells	dramatic induction of cell death	7.75 µM	limited aqueous solubility	–
O=C1NC(=S)S/C1=C\c1cc(O)c([N+](=O)[O-])cc1Cc1ccccc1 [PIT-2]	31.5 µM	significantly inhibited	significantly inhibited	suppressed the plasma membrane translocation	suppressed activity	–	reduced viability	–	reduce viability	reduced in Bax/Bak double knockout cells	dramatic induction of cell death	–	limited aqueous solubility	also observed
